Experimental data: ChEMBL document CHEMBL1201862, “PubChem BioAssay data set” (2004)
The source made the active and inactive calls.

What was measured:
HEK293 = test: HEK293T cell cytotoxicity, dose response, cytotoxicity control, ATP luminescence, cherry-pick samples (AID 687005); type: functional, cell-based; conditions: Homo sapiens;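 note: cells exposed to compound for 48 hours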
[1] = HEK293 Cytotoxicity Assay Measured in Cell-Based System Using Plate Reader - 7071-01_Inhibitor_Dose_CherryPick_Activity_Set2.; type: functional
[2] = biological target: T1, Heat shock factor protein 1 (Mus musculus, UniProt P38532); test: HSF1 potentiators in luciferase reporter cells, confirmation, cell-based, NIH3T3, luminescence, dose retest (AID 435004); type: functional;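 note: stress induced by proteasome inhibitor MG132 added 30 min after compound; luciferase reporter driven by HSF1 response element in NIH3T3 cells; actives raise luminescence as potentiators of the MG132 stress response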
T1 sequence (P38532 whole entry): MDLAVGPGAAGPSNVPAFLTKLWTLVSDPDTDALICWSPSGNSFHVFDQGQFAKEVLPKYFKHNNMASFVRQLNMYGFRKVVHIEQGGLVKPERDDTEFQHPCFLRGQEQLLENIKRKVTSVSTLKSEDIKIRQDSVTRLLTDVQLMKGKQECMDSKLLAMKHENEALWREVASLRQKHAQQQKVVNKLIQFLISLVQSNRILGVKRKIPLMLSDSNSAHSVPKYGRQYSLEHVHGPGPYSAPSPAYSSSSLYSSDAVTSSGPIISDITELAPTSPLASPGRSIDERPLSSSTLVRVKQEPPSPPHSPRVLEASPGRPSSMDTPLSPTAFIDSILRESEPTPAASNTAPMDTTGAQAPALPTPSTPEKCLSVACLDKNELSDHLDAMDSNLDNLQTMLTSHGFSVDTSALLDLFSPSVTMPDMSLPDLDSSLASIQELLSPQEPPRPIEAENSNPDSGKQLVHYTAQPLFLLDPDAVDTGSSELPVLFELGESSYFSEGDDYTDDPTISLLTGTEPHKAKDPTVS

[3] = biological target: SWI/SNF-related matrix-associated actin-dependent regulator of chromatin subfamily A member 2 (Homo sapiens, UniProt P51531); test: Luminescence-based cell-based high throughput dose response assay to identify activators of the function of SWI/SNF related, matrix associated, actin dependent regulator of chromatin, subfamily a, member 2 (SMARCA2, BRM).; type: functional
SWI/SNF-related matrix-associated actin-dependent regulator of chromatin subfamily A member 2, sequence (P51531 whole entry): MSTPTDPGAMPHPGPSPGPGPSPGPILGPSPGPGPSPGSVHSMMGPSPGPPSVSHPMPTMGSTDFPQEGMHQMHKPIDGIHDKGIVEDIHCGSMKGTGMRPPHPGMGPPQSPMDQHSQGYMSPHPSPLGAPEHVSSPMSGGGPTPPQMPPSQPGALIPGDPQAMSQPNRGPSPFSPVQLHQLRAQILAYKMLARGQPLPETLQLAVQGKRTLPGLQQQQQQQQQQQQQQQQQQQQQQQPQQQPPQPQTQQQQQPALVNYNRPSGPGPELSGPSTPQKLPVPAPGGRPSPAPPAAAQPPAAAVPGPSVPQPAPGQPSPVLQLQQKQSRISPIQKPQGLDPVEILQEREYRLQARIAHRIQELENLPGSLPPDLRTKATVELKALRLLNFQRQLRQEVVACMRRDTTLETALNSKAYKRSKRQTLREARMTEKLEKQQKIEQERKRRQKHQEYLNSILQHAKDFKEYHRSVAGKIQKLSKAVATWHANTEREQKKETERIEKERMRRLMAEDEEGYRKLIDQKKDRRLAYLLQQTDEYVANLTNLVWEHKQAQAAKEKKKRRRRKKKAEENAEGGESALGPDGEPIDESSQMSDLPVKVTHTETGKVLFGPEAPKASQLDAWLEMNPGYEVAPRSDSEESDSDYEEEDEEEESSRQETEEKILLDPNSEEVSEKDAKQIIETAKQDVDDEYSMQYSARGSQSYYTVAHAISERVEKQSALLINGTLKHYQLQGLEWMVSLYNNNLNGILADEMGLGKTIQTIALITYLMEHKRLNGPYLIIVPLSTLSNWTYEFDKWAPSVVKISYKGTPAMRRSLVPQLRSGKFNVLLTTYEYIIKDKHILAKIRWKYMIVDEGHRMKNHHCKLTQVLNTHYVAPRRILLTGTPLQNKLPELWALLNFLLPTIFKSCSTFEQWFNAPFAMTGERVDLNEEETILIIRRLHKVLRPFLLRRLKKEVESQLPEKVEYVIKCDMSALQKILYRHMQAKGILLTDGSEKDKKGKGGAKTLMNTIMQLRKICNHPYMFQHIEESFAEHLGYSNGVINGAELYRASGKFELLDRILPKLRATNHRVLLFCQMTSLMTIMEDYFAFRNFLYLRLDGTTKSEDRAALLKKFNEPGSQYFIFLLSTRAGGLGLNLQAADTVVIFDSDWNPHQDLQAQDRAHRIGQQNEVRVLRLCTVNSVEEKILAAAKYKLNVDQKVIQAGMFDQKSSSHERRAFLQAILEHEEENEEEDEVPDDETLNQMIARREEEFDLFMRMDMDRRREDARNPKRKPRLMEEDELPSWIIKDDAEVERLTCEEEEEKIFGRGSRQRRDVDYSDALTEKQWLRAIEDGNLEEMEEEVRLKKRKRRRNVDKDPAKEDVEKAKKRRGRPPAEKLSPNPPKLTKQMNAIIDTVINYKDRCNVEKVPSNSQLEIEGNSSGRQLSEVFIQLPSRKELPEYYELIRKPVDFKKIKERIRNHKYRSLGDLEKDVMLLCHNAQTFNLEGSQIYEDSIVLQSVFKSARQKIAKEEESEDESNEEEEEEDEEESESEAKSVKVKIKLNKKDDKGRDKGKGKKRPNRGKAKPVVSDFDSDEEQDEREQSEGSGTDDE

[4] = Counterscreen for activators of the function of SWI/SNF related, matrix associated, actin dependent regulator of chromatin, subfamily a, member 2 (SMARCA2, BRM): Luminescence-based cell-based high throughput dose response assay to identify non-selective compounds using the VP16 reporter assay.; type: functional
[5] = biological target: T2, RNA-editing ligase 1, mitochondrial (Trypanosoma brucei brucei, UniProt P86926); test: TbREL1 ligase inhibitors, dose response, biochemical, fluorescence, Trypanosoma brucei (AID 1117295); type: functional
T2 sequence (P86926 whole entry): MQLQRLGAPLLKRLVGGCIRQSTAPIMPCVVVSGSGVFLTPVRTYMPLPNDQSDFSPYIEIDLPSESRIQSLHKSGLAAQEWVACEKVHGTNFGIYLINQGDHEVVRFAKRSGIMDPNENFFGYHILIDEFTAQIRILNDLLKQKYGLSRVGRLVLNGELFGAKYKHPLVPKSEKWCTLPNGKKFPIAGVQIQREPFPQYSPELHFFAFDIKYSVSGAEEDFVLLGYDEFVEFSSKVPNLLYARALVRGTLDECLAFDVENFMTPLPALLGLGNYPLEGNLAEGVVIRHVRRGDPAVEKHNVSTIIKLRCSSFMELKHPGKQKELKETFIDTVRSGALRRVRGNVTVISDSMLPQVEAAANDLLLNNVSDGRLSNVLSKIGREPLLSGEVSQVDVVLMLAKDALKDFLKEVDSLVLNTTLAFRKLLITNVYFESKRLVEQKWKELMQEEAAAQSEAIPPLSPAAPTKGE

[6] = inhibitors of Vif binding to APOBEC3G peptide, primary screen, biochemical, TR-FRET, GST-Vif 1-94, biotin-A3G peptide, dose response retest (AID 1117319); type: functional;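 note: TR-FRET signal of purified GST-Vif binding a biotinylated A3G peptide; inhibitors lower the FRET signal by blocking Vif and A3G binding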
[7] = A Cell Based Secondary Assay To Explore Cytotoxicity of Compounds that Sensitize Mycobacterium Tuberculosis to Beta-Lactam Antibiotics.; type: functional
Vero = test: host cell cytotoxicity of antiviral hits, dose response, cytotoxicity control for West Nile virus antiviral project, secondary assay (AID 1650); type: functional; conditions: Chlorocebus sabaeus

What does the source list for `O=C(C[C@@H]1CC[C@@H]2[C@H](COC[C@@H](O)CN2C(=O)Nc2ccc(Cl)cc2)O1)NC1Cc2ccccc2C1`?
AC50 (HEK293): 25.2 µM (active); AC50 [1]: 25.2 µM (active)

Which AC50 (HEK293) does the source give for `C[C@@H]1CCCCO[C@H](CN(C)C(=O)Nc2ccc(F)cc2)[C@H](C)CN([C@@H](C)CO)C(=O)c2cc(NS(=O)(=O)c3ccc(Cl)cc3)ccc2O1` here?
Its AC50 is 21.9 µM (active).

What about the AC50 [1] of the same molecule?
Its AC50 is 21.9 µM (active).

What does the source list for `Cc1cc(C)nc(Sc2nc(Cl)nc(N(c3ccccc3)c3ccccc3)n2)n1`?
EC50 [2]: > 260 µM (inactive); EC50 [3]: > 91.1 µM (inactive); EC50 [4]: > 91.1 µM (inactive)

Which IC50 [5] does the source give for `COC(=O)C1=C(C)N(Cc2ccccc2C(F)(F)F)C(NCc2cccc(C(F)(F)F)c2)=NC1c1ccc(C(F)(F)F)cc1` (stereo unspecified) here?
Its IC50 is > 96.6 µM (inactive).

With `CCOc1ccc(NC(=O)C2CCCN(S(=O)(=O)c3c(C)n[nH]c3C)C2)cc1` (stereo unspecified) as the molecule, how does the IC50 [6] read?
The IC50 was > 100 µM (active).

Which CC50 [7] does the source give for `O=C(Nc1cccc(C(F)(F)F)c1)N1CCC(c2nc(-c3ccc(F)cc3)no2)CC1` here?
The CC50 was > 40 µM (active).

And the CC50 (Vero)?
Its CC50 is 12.6 µM (active).
